Ends that are not written are not given here.
Legend:
[1] = amylin agonist activity in vivo: ability to induce hyperlactemia and/or hyperglycemia in mammals; details: treated test animals
Description: Analogues of amylin can be assayed for activity in the soleus muscle assay described above. Amylin agonist activity of compounds may also be assessed by the ability to induce hyperlactemia and/or hyperglycemia in mammals. […] These preferred compounds include ^25 Pro^26 Val^28,29 Pro-h-amylin, ^25,28,29 Pro-h-amylin, and ^18 Arg^25,28 Pro-h-amylin.

[2] = solubility and stability characteristics compared to human amylin; format: physicochemical
[3] = toxicological studies with amylin, two weeks of administration (dogs); format: in vivo
Description: (§1) While this proposal is counter to reports that amylin can suppress appetite (which is clearly an undesirable feature for treatment of anorexia or cachectic states), applicant believes that the appetite suppressant effects of amylin is seen only at very high doses and may be short lived. Indeed, applicant has discovered that in toxicological studies with amylin in both rats and dogs, where two weeks of amylin administration were used, there was no reduction in food intake or weight in the animal.

[4] = administration of amylin to anesthetized rats: blood lactate and blood glucose; format: in vivo
Description: The term "amylin" is used in this application to include compounds defined by Young et al., U.S. application Ser. No. 07/640,478, filed Jan. 10, 1991, now U.S. Pat. No. 5,234,906, entitled "Hyperglycemic Compositions", which (including drawings) is hereby incorporated by reference. For example, it includes the peptide hormone, and species variations of it, referred to as amylin which is synthesized and secreted from the beta cells of the pancreas. Thus, it includes human amylin, cat amylin, dog amylin; rat amylin, mouse amylin, hamster amylin, and guinea pig amylin. Preferably the amylin has an EC50 of less than 1 nM in the rat soleus muscle assay as described in, for example, European Patent Application 88307927.9. Amylin functions along with insulin, which is stored and released from the same pancreatic beta cells, to regulate fuel metabolism. Amylin acts through receptors located in skeletal muscle to increase glycogen turnover in this tissue, believed to result in an increased return to the bloodstream of lactate, which is a major precursor of hepatic gluconeogenesis. Amylin cosecretion with insulin after meals therefore results in restoration of hepatic glycogen content and limits the potential which would otherwise exist for insulin to induce hypoglycemia. […]

[5] = toxicological studies with amylin, two weeks of administration (rats); format: in vivo
Description: as §1

liver glucose output = details: rats; cited from earlier work

Substance | amylin activity in vivo (hyperlactemia, hyperglycemia) [1] | solubility characteristics [2] | stability characteristics [2] | also measured
^18 Arg^25,28 Pro-h-amylin | marked hyperlactemia followed by hyperglycemia | more desireable | more desireable | –
^25 Pro^26 Val^28,29 Pro-h-amylin | – | more desireable | more desireable | –
^25,28,29 Pro-h-amylin (KCNTATCATQRLANFLVHSSNNFGPILPPTNVGSNTY; ends and bridges not checked; cysteine pairing not given here; UniProt P10997 34-70, looked up, variant A25P S28P S29P) [agonist analogue of human amylin] | marked hyperlactemia followed by hyperglycemia | more desireable | more desireable | –
^28 Pro-h-amylin (KCNTATCATQRLANFLVHSSNNFGAILPSTNVGSNTY; ends and bridges not checked; cysteine pairing not given here; UniProt P10997 34-70, looked up, variant S28P) [agonist analogue of human amylin] | marked hyperlactemia followed by hyperglycemia | – | – | –
amylin (KCNTATCATQRLANFLVHSSNNFGAILSSTNVGSNTY; Islet amyloid polypeptide; UniProt P10997 34-70, looked up) [peptide hormone, and species variations of it, synthesized and secreted from the beta cells of the pancreas] | – | – | – | reduction in food intake [3]: no reduction; reduction in weight [3]: no reduction; blood lactate levels [4]: large increases in blood lactate levels; blood glucose levels ([4]; following the lactate increase): increased blood glucose levels; reduction in food intake [5]: no reduction; reduction in weight [5]: no reduction; effect on insulin-mediated suppression of liver glucose output (liver glucose output): reverses insulin-mediated suppression of liver glucose output
des-^1 Lys-h-amylin (CNTATCATQRLANFLVHSSNNFGAILSSTNVGSNTY; ends and bridges not checked; cysteine pairing not given here; UniProt P10997 34-70, looked up, variant K1*) [agonist analogue of human amylin] | marked hyperlactemia followed by hyperglycemia | – | – | –
des-^1 Lys^18 Arg^25,28 Pro-h-amylin | marked hyperlactemia followed by hyperglycemia | – | – | –

From US5656590A, “Treatment of anorexia and related states” (Amylin Pharmaceuticals, Inc., priority 1993, dated 1997)
